From publication PMC11912475 (Journal of Medicinal Chemistry, 2025)

Tests used:
Format in all cases: cell-based
Conditions in all cases: CHO cells, 10 μM L-glutamate and 10 μM glycine; n.d. = 50% of inhibition could not be reached at the highest concentration used
[1] = target: GluN1-GluN2D NMDAR subtype (Homo sapiens, UniProt O15399+Q05586); assay: FLIPR/Ca2+ assay, NMDAR GluN1-GluN2D subtype in CHO cells
Method: (§1) These compounds were assessed for their effects on specific heterodimeric NMDAR subtypes stably overexpressed in Chinese Hamster Ovary (CHO) cells. The subtypes tested included GluN1-GluN2A, GluN1-GluN2B, GluN1-GluN2C, and GluN1-GluN2D. CHO cells expressing each of the four NMDAR subtypes were incubated with 10 μM L-glutamate, a concentration known to elicit maximal Ca^2+ influx, serving as the stimulus. Intracellular Ca^2+ levels were subsequently measured to determine the extent of NMDAR activation.
(§2) Assay buffer composition was 145 mM NaCl, 5 mM KCl, 2 mM CaCl2, 1 g/Liter D-(+)-glucose, and 20 mM HEPES (pH 7.3 adjusted with NaOH). Cells were plated at a density of 15.000/well in 384 black/clear bottom plates. […] Cells were kept at 30 °C in 5% CO2 incubator for 24 h. Cells were preloaded for 1 h with 2 μM Fluo-4 Ca^2+-sensitive probe, simultaneously with 2.5 mM probenecid, an inhibitor of nonspecific anion transport, and 500 μM ketamine to avoid cytotoxicity. […] Intracellular Ca^2+ level was monitored by FLIPR (excitation wavelength at 470–495 nm, emission wavelength at 515–575 nm) for 10 s before and 5 min after the addition of test items. All test items, including L-glutamate and glycine, were added simultaneously. […] FLIPR data were normalized as 100%, in the presence of 10 μM L-glutamate and 10 μM glycine, while as 0%, in the presence of assay buffer. […] Then, data were normalized by Excel 2013 (Microsoft Office) software, using wells added with 10 μM L-glutamate plus 10 μM glycine (column 23) as high control, and wells added with assay buffer only (column 24) as low control. To assess plate quality, Z′ calculations were performed in Excel. Z′ was calculated according to following equation: Z′ = 1–3(σh + σl)/|μh – μL| where μ and σ are the means and the standard deviations of the means of high (h) and low (l) controls, respectively. Compound concentration–response curves were plotted by Prism 8 GraphPad software, in the different experimental conditions (see Supporting Information). Data were analyzed using least-squares regression fitting, to fit data to a standard four parameters logistic equation using GraphPad Prism10. This regression fitting allowed the calculation of pIC50 and the corresponding SEM.

[2] = target: T1, GluN1-GluN2B NMDAR subtype (Homo sapiens, UniProt Q05586+Q13224); assay: FLIPR/Ca2+ assay, NMDAR GluN1-GluN2B subtype in CHO cells
T1 construct: host or cells: NR1-2B-CHO cells, constitutive expression
T1 sequence (Q13224 27-1484, other chains not shown): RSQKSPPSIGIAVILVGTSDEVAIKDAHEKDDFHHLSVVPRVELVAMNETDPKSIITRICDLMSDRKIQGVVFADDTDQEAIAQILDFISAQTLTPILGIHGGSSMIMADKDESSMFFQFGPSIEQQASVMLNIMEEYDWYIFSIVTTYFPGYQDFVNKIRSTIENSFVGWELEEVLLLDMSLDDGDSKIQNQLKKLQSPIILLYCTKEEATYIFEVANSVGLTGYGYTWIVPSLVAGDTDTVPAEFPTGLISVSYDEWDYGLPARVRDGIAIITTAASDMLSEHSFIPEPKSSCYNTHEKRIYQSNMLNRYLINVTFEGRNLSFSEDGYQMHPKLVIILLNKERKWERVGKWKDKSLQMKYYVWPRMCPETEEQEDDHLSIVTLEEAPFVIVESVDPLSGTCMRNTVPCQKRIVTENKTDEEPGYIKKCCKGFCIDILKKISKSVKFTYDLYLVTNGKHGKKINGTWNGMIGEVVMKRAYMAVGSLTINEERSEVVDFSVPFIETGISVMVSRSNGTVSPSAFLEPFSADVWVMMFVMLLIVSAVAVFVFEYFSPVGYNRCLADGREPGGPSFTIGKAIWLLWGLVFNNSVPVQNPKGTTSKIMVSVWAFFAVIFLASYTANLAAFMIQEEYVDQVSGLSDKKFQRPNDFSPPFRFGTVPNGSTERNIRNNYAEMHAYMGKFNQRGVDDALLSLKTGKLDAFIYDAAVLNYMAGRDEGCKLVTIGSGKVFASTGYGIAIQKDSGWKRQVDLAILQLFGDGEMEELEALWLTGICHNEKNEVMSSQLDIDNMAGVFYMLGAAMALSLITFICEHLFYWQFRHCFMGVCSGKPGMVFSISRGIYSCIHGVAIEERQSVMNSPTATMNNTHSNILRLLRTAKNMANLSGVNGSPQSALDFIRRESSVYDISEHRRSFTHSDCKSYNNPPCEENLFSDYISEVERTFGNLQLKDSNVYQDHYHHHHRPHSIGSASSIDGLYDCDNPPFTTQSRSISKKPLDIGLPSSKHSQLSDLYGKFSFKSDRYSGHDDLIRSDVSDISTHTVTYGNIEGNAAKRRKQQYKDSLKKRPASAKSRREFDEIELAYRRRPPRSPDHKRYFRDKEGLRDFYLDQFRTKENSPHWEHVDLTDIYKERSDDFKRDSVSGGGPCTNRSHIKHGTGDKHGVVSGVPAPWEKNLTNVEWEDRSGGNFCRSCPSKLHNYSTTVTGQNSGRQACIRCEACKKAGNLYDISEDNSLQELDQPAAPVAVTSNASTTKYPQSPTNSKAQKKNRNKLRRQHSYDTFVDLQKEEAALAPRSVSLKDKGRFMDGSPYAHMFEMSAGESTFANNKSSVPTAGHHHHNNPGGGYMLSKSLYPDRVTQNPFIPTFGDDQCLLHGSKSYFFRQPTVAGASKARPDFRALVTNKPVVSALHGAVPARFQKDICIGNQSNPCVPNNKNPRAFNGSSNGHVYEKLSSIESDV
Method: as §1, §2

[3] = target: GluN1-GluN2C NMDAR subtype (Homo sapiens, UniProt Q05586+Q14957); assay: FLIPR/Ca2+ assay, NMDAR GluN1-GluN2C subtype in CHO cells
Sequence of GluN1-GluN2C NMDAR subtype (Q14957 20-1233, other chains not shown): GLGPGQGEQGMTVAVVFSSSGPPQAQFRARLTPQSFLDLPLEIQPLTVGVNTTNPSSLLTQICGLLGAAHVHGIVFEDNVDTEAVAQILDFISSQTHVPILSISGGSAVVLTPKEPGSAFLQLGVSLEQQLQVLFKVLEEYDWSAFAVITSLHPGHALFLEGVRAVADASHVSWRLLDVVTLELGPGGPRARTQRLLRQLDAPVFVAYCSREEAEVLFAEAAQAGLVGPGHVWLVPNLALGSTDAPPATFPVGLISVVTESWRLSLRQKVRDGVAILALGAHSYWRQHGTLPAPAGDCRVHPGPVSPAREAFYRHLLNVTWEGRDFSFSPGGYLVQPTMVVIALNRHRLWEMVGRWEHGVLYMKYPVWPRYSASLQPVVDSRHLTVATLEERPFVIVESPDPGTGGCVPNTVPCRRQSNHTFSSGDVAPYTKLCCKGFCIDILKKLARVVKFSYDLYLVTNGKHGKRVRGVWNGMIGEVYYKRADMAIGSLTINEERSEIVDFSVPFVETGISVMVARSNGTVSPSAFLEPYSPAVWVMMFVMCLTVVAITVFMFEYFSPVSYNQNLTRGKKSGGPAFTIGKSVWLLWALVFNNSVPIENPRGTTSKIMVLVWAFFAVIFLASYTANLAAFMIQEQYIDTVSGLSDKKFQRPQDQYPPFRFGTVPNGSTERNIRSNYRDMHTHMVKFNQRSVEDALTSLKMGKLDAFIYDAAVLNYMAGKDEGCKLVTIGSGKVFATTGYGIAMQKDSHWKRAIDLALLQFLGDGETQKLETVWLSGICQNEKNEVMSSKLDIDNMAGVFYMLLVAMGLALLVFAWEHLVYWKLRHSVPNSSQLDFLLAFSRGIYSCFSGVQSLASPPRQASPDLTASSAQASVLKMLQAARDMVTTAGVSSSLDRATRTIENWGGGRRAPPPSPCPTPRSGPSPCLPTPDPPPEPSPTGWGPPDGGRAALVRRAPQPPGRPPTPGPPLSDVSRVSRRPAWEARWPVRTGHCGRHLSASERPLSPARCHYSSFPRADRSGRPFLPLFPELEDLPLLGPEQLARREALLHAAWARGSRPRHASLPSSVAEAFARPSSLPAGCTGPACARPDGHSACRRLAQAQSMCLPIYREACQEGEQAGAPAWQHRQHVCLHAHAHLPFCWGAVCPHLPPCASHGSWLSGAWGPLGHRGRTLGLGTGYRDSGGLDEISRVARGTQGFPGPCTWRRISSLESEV
Method: as §1, §2

[4] = target: GluN1-GluN2A NMDAR subtype (Homo sapiens, UniProt Q05586+Q12879); assay: FLIPR/Ca2+ assay, NMDAR GluN1-GluN2A subtype in CHO cells
Sequence of GluN1-GluN2A NMDAR subtype (Q12879 23-1464, other chains not shown): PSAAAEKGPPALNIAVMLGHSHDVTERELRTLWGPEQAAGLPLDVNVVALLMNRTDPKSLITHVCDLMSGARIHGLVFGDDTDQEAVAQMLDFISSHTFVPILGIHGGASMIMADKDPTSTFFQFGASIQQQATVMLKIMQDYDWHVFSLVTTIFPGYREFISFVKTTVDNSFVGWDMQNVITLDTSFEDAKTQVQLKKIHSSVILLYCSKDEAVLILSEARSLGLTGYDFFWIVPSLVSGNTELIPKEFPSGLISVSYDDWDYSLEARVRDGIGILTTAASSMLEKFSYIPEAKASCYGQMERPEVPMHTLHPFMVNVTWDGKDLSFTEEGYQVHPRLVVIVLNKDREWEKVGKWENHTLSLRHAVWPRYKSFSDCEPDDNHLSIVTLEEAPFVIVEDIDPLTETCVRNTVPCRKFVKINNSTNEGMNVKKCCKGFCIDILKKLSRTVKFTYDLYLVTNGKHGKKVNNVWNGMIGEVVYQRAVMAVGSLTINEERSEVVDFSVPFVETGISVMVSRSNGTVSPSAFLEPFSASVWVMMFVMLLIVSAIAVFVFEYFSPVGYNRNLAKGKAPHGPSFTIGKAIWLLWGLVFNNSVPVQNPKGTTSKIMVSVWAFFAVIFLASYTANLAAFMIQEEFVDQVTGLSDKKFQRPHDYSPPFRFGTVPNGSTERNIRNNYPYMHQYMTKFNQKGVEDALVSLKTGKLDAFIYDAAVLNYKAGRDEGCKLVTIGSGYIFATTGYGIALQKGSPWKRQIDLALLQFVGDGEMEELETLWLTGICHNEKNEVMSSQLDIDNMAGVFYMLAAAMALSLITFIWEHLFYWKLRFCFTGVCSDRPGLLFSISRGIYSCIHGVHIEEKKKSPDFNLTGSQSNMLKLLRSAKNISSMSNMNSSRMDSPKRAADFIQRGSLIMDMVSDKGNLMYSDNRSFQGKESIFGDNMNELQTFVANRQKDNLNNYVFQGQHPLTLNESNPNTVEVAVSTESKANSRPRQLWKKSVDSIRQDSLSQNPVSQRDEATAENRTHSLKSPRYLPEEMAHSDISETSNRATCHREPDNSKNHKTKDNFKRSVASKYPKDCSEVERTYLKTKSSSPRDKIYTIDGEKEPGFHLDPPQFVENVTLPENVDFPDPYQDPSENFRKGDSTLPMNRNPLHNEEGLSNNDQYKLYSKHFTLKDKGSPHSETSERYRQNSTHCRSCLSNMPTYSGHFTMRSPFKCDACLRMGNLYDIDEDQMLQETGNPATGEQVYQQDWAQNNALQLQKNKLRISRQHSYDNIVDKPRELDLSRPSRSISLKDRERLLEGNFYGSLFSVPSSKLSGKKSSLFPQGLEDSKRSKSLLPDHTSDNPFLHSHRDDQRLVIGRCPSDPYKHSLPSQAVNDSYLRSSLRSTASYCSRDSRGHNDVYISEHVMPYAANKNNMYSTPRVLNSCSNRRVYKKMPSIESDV
Method: as §1, §2

Compound	pIC50 (mean ± SEM) GluN1-GluN2D [1]	pIC50 (mean ± SEM) GluN1-GluN2B [2]	pIC50 (mean ± SEM) GluN1-GluN2C [3]	pIC50 (mean ± SEM) GluN1-GluN2A [4]
CNC1(c2ccccc2Cl)CCCCC1=O (racemic) [(±)-ketamine, reference compound]	5.0 ± 0.087	5.2 ± 0.037	5.4 ± 0.069	4.6 ± 0.028
CC[C@@H](O)C(C[C@@H](C)N(C)C)(c1ccccc1)c1ccccc1 [(3R,6R)-ML, (3R,6R)-6-(dimethylamino)-4,4-diphenylheptan-3-ol]	4.3 ± 0.12	4.0 ± 0.12	4.1 ± 0.062	4.5 ± 0.085
CC[C@@H](O)C(C[C@H](C)N(C)C)(c1ccccc1)c1ccccc1 [(3R,6S)-ML, (3R,6S)-6-(dimethylamino)-4,4-diphenylheptan-3-ol]				4.0 ± 0.23
CC[C@H](O)C(C[C@@H](C)N(C)C)(c1ccccc1)c1ccccc1 [(3S,6R)-ML, (3S,6R)-6-(dimethylamino)-4,4-diphenylheptan-3-ol]	4.2 ± 0.23		4.2 ± 0.074	4.5 ± 0.18
CC[C@H](O)C(C[C@H](C)N(C)C)(c1ccccc1)c1ccccc1 [(3S,6S)-ML, (3S,6S)-6-(dimethylamino)-4,4-diphenylheptan-3-ol]	4.2 ± 0.16	4.0 ± 0.077	4.1 ± 0.056	4.1 ± 0.034
